Values of other authors as cited in article PMC2222665, “The dimerization domain of HIV-1 viral infectivity factor Vif is required to block virion incorporation of APOBEC3G” (Retrovirology, 2007).

System: HIV-1
Design: method as in PMID 1708976
Conditions: ref [45],[46]

**Q.** With `Cc1cn([C@H]2C[C@H](N=[N+]=[N-])[C@@H](CO)O2)c(=O)[nH]c1=O` [AZT] as the molecule, how does the “IC95 of HIV-1 infectivity” value read?
**A.** The value was 5 µM.
